Data from article PMC10262918, “Stapled peptide PROTAC induced significantly greater anti-PD-L1 effects than inhibitor in human cervical cancer cells” (Frontiers in Immunology, 2023).

Tested on: PD-L1 in C33A cells
Experiment: Western blotting of PD-L1 level in C33A cells
Type: cell-based, human
Details: 4 h treatment, mean of 3 independent experiments, read-out: IC50 of PD-L1 decrease
Experimental: C33A and HeLa cells were plated in 6-well plates and treated with the stapled peptide at the indicated concentrations for the specified time, followed by lysis in RIPA buffer containing protease inhibitor. Protein samples were prepared using a BCA Protein Assay Kit (Beyotime). A total of 50 µg of protein were added per lane, separated by 10% SDS-PAGE, and subsequently transferred onto polyvinylidene fluoride (PVDF) membrane. The membrane was blocked with 5% skimmed milk for 2 h at room temperature. Primary antibodies including anti-PD-L1 (Abcam, ab213524) and anti-GAPDH (Abcam, ab9485) antibodies were diluted in primary antibody dilution buffer (Biosharp) and incubated with PVDF membrane at 4°C overnight. Next, the membrane was incubated with goat anti-mouse/anti-rabbit secondary antibodies (Proteintech, SA00001-1, SA00001-2) at room temperature for 1 h. After washing with TBST thrice for 5 min each, the proteins were detected using enhanced chemiluminescence (ECL) reagents (Vazyme) and a ChemiDoc XRS imaging system (Bio-Rad Laboratories).

Cc1c(COc2ccc(CN3CCCCC3C(=O)O)cc2Br)cccc1-c1ccccc1 (stereo not shown) [BMS-8]
IC50: 7.79 µM
